Values quoted from earlier work, collected in US12622947B2, “Pharmaceutical composition for treating levodopa-induced dyskinesia or for suppressing progression thereof” (PEPTRON, INC., priority 2019, dated 2026).

Assays:
[1] = test system: MPTP mouse model; details: given daily for 7 days after treatment (Liu et al., 2015)
[2] = compared to GLP-1-Tf (Martin et al., 2012)
[3] = in vivo

## Exendin-4
[1]
  neuro-protection: not effective
[2]
  rotarod performance: improve rotarod performance
[3]
  crossing the BBB / entry into the brain from blood: enter the brain from blood although its entry speed is limited
